Reference: ChEMBL document CHEMBL4651402, “Screening of ~5500 FDA-approved drugs and clinical candidates for anti-SARS-CoV-2 activity” (2021)

System: SARS-CoV-2
Assay: microbe, parasite or virus in culture
Conditions: Severe acute respiratory syndrome coronavirus 2, Vero C1008, 48 h

Compound	IC50	IC50 (read-out: pIC50 (converted))
CN(C)C(=O)Oc1cc(OC(=O)N(C)C)cc(C(O)CNC(C)(C)C)c1 (configuration not stated) [BAMBUTEROL]	> 20 µM	> 20 µM
CCN(CCO)CCn1c(Cc2ccccc2)nc2c1c(=O)n(C)c(=O)n2C [BAMIFYLLINE]	> 20 µM	> 20 µM
Cc1ncc([N+](=O)[O-])n1CCOC(N)=O [BAMNIDAZOLE]	> 20 µM	> 20 µM
CCC1(CC)C(=O)NC(=O)NC1=O [BARBITAL]	> 20 µM	> 20 µM
COC(=O)[C@]12CCC(C)(C)C[C@H]1[C@H]1C(=O)C=C3[C@@]4(C)C=C(C#N)C(=O)C(C)(C)[C@@H]4CC[C@@]3(C)[C@]1(C)CC2 [BARDOXOLONE METHYL]	> 20 µM	> 20 µM
Cc1nc2ccccn2c(=O)c1CCN1CCC(Nc2nc3cccnc3n2Cc2ccco2)CC1 [BARMASTINE]	> 20 µM	> 20 µM
CCN(CC)CCNC(=O)c1cc(Cl)c(N)cc1OC(C)C(C)=O (configuration not stated) [BATANOPRIDE]	> 20 µM	> 20 µM
CC(C)(C)c1ccc(OC(=O)[C@H]2CC[C@H](CNC(=N)N)CC2)cc1 [BATEBULAST]	> 20 µM	> 20 µM
O=C(CCCl)NCc1ccccc1 [BECLAMIDE]	> 20 µM	> 20 µM
C[C@H]1C[C@H]2[C@@H]3CCC4=CC(=O)C=C[C@]4(C)[C@@]3(Cl)[C@@H](O)C[C@]2(C)[C@@]1(O)C(=O)CO [BECLOMETHASONE]	> 20 µM	> 20 µM
COc1nc2ccc(Br)cc2cc1[C@@H](c1ccccc1)[C@@](O)(CCN(C)C)c1cccc2ccccc12 [BEDAQUILINE]	> 20 µM	> 20 µM
O=C(c1cc2ccccc2o1)N1CCN(Cc2ccccc2)CC1 [BEFURALINE]	> 20 µM	> 20 µM
CCCCCCCCCCCCCCCCCCCCCC(=O)O [BEHENIC ACID]	> 20 µM	> 20 µM
O=C(/C=C/c1cccc(S(=O)(=O)Nc2ccccc2)c1)NO [BELINOSTAT]	> 20 µM	> 20 µM
CCO[C@@H]1OC(=O)C[C@@H]1NC(=O)[C@@H]1CCCN1C(=O)[C@@H](NC(=O)c1ccc(N)c(Cl)c1)C(C)(C)C [BELNACASAN]	> 20 µM	> 20 µM
CC[C@@]1(O)C(=O)OCc2c1cc1n(c2=O)Cc2c-1nc1ccccc1c2CCNC(C)C [BELOTECAN]	> 20 µM	> 20 µM
CC(C)NC(=O)COc1cccc(-c2nc(Nc3ccc4[nH]ncc4c3)c3ccccc3n2)c1 [BELUMOSUDIL]	> 20 µM	> 20 µM
CCC1(C)CC(=O)NC(=O)C1 [BEMEGRIDE]	> 20 µM	> 20 µM
CN1[C@@H]2CC[C@H]1C[C@@H](OC(=O)c1cc(Cl)cc(Cl)c1)C2 [BEMESETRON]	> 20 µM	> 20 µM

Compound	IC50	IC50 (read-out: pIC50 (converted))
CCN(CC)CCOC(=O)C(O)(c1ccccc1)c1ccccc1 [BENACTYZINE]	> 20 µM	> 20 µM
CCOC(=O)[C@H](CCc1ccccc1)N[C@H]1CCc2ccccc2N(CC(=O)O)C1=O [BENAZEPRIL]	> 20 µM	> 20 µM
CN(C)CCCOC1(Cc2ccccc2)CCCCCC1 [BENCYCLANE]	> 20 µM	> 20 µM
O=C(O)COc1nn(Cc2ccccc2)c2ccccc12 [BENDAZAC]	> 20 µM	> 20 µM
NS(=O)(=O)c1cc2c(cc1C(F)(F)F)NC(Cc1ccccc1)NS2(=O)=O (configuration not stated) [BENDROFLUMETHIAZIDE]	> 20 µM	> 20 µM
CC(Cc1cccc(C(F)(F)F)c1)NCCOC(=O)c1ccccc1 (configuration not stated) [BENFLUOREX]	> 20 µM	> 20 µM
C/C(=C(\CCOP(=O)(O)O)SC(=O)c1ccccc1)N(C=O)Cc1cnc(C)nc1N [BENFOTIAMINE]	> 20 µM	> 20 µM
CC(C(=O)O)c1ccc2oc(-c3ccc(Cl)cc3)nc2c1 (configuration not stated) [BENOXAPROFEN]	> 20 µM	> 20 µM
CCCCOc1cc(C(=O)OCCN(CC)CC)ccc1N [BENOXINATE]	> 20 µM	> 20 µM
O=C(CCCN1CCC(n2c(=O)[nH]c3ccccc32)CC1)c1ccc(F)cc1 [BENPERIDOL]	> 20 µM	> 20 µM
NC(CO)C(=O)NNCc1ccc(O)c(O)c1O (configuration not stated) [BENSERAZIDE]	> 20 µM	> 20 µM
O=C1CN=C(c2ccccc2)c2c(sc3c2CCCC3)N1 [BENTAZEPAM]	> 20 µM	> 20 µM
N/C(=N\C(=O)c1nc(Cl)c(N)nc1N)NCc1ccccc1 [BENZAMIL]	> 20 µM	> 20 µM
O=C1c2ccccc2-c2cccc3cccc1c23 [BENZANTHRONE]	> 20 µM	> 20 µM
CCc1oc2ccccc2c1C(=O)c1cc(Br)c(O)c(Br)c1 [BENZBROMARONE]	> 20 µM	> 20 µM
O=C1CCC(c2ccccc2)(C2CCN(Cc3ccccc3)CC2)C(=O)N1 (configuration not stated) [BENZETIMIDE]	> 20 µM	> 20 µM
CC[N+]1(CC)CCC(OC(=O)C(O)(c2ccccc2)c2ccccc2)C1 (configuration not stated) [BENZILONIUM]	> 20 µM	> 20 µM
c1ccc(Cn2cc(CCc3ccncc3)c3ccccc32)cc1 [BENZINDOPYRINE]	> 20 µM	> 20 µM
CCc1oc2ccccc2c1C(=O)c1cc(I)c(O)c(I)c1 [BENZIODARONE]	> 20 µM	> 20 µM

Compound	IC50	IC50 (read-out: pIC50 (converted))
CCOC(=O)c1ccc(N)cc1 [BENZOCAINE]	> 20 µM	> 20 µM
O=C(O)c1ccccc1 [BENZOIC ACID]	> 20 µM	> 20 µM
O=C(c1ccccc1)C(O)c1ccccc1 (configuration not stated) [BENZOIN]	> 20 µM	> 20 µM
CCCCNc1ccc(C(=O)OCCOCCOCCOCCOCCOCCOCCOCCOCCOC)cc1 [BENZONATATE]	> 20 µM	> 20 µM
O=C(c1ccccc1)c1ccccc1 [BENZOPHENONE]	> 20 µM	> 20 µM
c1ccc2sc(SSc3nc4ccccc4s3)nc2c1 [BENZOTHIAZYL DISULFIDE]	> 20 µM	> 20 µM
O=C(N[C@@H](Cc1c[nH]c2ccccc12)C(=O)O)c1ccc(Cl)cc1 [BENZOTRIPT]	> 20 µM	> 20 µM
O=C(Oc1cccc2cccnc12)c1ccccc1 [BENZOXIQUINE]	> 20 µM	> 20 µM
O=C(OOC(=O)c1ccccc1)c1ccccc1 [BENZOYL PEROXIDE]	> 20 µM	> 20 µM
O=C(Nc1ccc(C(=O)O)c(O)c1)c1ccccc1 [BENZOYLPAS]	> 20 µM	> 20 µM
CCN(CC)C(=O)C1CN2CCc3cc(OC)c(OC)cc3C2CC1OC(C)=O (configuration not stated) [BENZQUINAMIDE]	> 20 µM	> 20 µM
NS(=O)(=O)c1cc2c(cc1Cl)N=C(CSCc1ccccc1)NS2(=O)=O [BENZTHIAZIDE]	> 20 µM	> 20 µM
CN(C)CCCOc1nn(Cc2ccccc2)c2ccccc12 [BENZYDAMINE]	> 20 µM	> 20 µM
O=C(OCc1ccccc1)c1ccccc1 [BENZYL BENZOATE]	> 20 µM	> 20 µM
NNCc1ccccc1 [BENZYLHYDRAZINE]	> 20 µM	> 20 µM
C[N+](C)(CCOc1ccccc1)Cc1ccccc1 [BEPHENIUM]	> 20 µM	> 20 µM
CC(C)COCC(CN(Cc1ccccc1)c1ccccc1)N1CCCC1 (configuration not stated) [BEPRIDIL]	> 20 µM	> 20 µM
COc1ccc2cc3[n+](cc2c1OC)CCc1cc2c(cc1-3)OCO2 [BERBERINE]	> 20 µM	> 20 µM
